Target: T1, human PPAR alpha (Homo sapiens, UniProt Q07869)
T1 construct: expressed in transfected cells; host or cells: U2-OS (human osteogenic sarcoma), transient electroporation with pSG5-based expression vector
T1 sequence (Q07869 239-466 limits assumed): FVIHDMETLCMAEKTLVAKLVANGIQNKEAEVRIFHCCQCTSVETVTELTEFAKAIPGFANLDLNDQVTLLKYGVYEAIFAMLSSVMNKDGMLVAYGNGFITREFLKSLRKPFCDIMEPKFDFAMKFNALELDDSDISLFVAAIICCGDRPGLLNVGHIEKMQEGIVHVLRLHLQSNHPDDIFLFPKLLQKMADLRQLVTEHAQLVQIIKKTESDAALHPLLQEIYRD
Test: GAL4-PPAR ligand binding domain luciferase reporter transactivation assay in transiently transfected U2-OS cells
Type: cell-based
Conditions: about 24 hours exposure, concentration giving 50% of maximal activation by reference compound (ETYA)
Method: Compounds were dissolved in DMSO to obtain 16 mM stock solutions. Before assays, stock solutions were further diluted in DMSO and culture media.
U2-OS, (Osteogenic sarcoma, Human) was purchased from ATCC, USA. Cells were expanded and refrozen in batches from passage number six. Cells were cultured in Dulbecco's modified Eagle medium (DMEM) with 25 mM glucose, 2 mM glutamine or 4 mM L-alanyl-L-glutamine, 10% fetal calf serum, at 5% CO2. Phosphate buffered saline (PBS) without addition of calcium or magnesium was used. All cell culture reagents were from Gibco (USA) and 96-well cell culture plates were purchased from Wallach.
Standard recombinant DNA techniques were carried out as described by Ausubel (7). The Luciferase reporter vector, pGL5UAS (clone consists of five copies of the GAL4 DNA binding sequence, 5′-[…]-3′, cloned into the SacI/XhoI sites of pGL3-Promoter (Promega). The SacI/XhoI fragment carrying the UAS sites was constructed using annealed overlapping oligonucleotides.
Expression vectors used are based upon pSG5 (Stratagene). All vectors contain an EcoRI/NheI fragment encoding the DNA binding domain of GAL4 (encoding amino acid positions 1-145 of database accession number P04386) followed by an in-frame fusion to a fragment encoding the nuclear localisation sequence from T antigen of Polyoma Virus. The nuclear localisation sequence was constructed using annealed overlapping oligonucleotides creating NheI/KpnI sticky ends (5′-[…]-3′). The ligand binding domains from human and mouse PPARα and human and mouse PPARγ were PCR amplified as KpnI/BamHI fragments and cloned in frame to the GAL4 DNA binding domain and the nuclear localisation sequence. The sequence of all plasmid constructs used were confirmed by sequencing.
Frozen stocks of cells from passage number six were thawed and expanded to passage number eight before transfections. Confluent cells were trypsinised, washed and pelleted by centrifugation at 270×g for 2 minutes. The cell pellet was resuspended in cold PBS to a cell concentration of about 18×10^6 cells/ml. After addition of DNA, the cell suspension was incubated on ice for approximately 5 minutes before electroporation at 230 V, 960 μF in Biorad's Gene Pulser™ in 0.5 ml batches. A total of 50 μg DNA was added to each batch of 0.5 ml cells, including 2.5 μg expression vector, 25 μg reporter vector and 22.5 μg unspecific DNA (pBluescript, Stratagene).
After electroporation, cells were diluted to a concentration of 320'000 cells/ml in DMEM without phenol red, and approximately 25'000 cells/well were seeded in 96-well plates. In order to allow cells to recover, seeded plates were incubated at 37° C. for 3-4 hours before addition of test compounds. […]

EC50 | SMILES
168 nM | CCCN(Cc1ccc(F)cc1F)C(=O)CCc1ccc(OCc2ccccc2C(=O)O)cc1 [Example 10, 2-[(4-{3-[(2,4-difluorobenzyl)(propyl)amino]-3-oxopropyl}phenoxy)methyl]benzoic acid]
163 nM | CCCCCCCN(Cc1ccc(F)cc1F)C(=O)CCc1ccc(OCc2ccccc2C(=O)O)cc1 [Example 5, 2-[(4-{3-[(2,4-Difluorobenzyl)(heptyl)amino]-3-oxopropyl}phenoxy)methyl]benzoic acid]
26 nM | CCN(Cc1ccc(C(F)(F)F)cc1)C(=O)Cc1ccc(SCc2ccccc2C(=O)O)cc1 [Example 11, 2-({[4-(2-{Ethyl[4-(trifluoromethyl)benzyl]amino}-2-oxoethyl)phenyl]thio}methyl)benzoic acid]
27 nM | CCN(Cc1ccc(Cl)cc1)C(=O)Cc1ccc(SCc2ccccc2C(=O)O)cc1 [Example 15, 2-{[(4-{2-[(4-Chlorobenzyl)(ethyl)amino]-2-oxoethyl}phenyl)thio]methyl}benzoic acid]

Reference: US7355069B2, “Ortho-substituted benzoic acid derivatives for the treatment of insulin resistance” (AstraZeneca AB, priority 2002, dated 2008)
